Measured values: the METLIN SMRT retention time set (Domingo-Almenara et al. 2019)

Experiment: gradient 5% acetonitrile 3 min, to 50% in 2 min, to 85% in 15 min, held 3 min, 100 µL/min
Conditions: column: Zorbax Extend-C18 2.1 x 50 mm; eluents: water / acetonitrile, 0.1% formic acid
How it was run: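 Values are retention times taken from adduct peaks that software picked and an analyst inspected. The pure standards were run as mixtures of ~100 molecules on HPLC linked to a quadrupole time-of-flight mass spectrometer, in positive and negative ionization mode. A Zorbax Extend-C18 column (2.1 × 50 mm, 1.8 μm) was used at 100 μL/min with water and acetonitrile, each including 0.1% formic acid.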

| RP-LC retention time [s] | Structure (SMILES) |
| --- | --- |
| 742 | CC(C)c1nncn1C1CCN(S(=O)(=O)Cc2ccc(Cl)cc2)CC1 |
| 658 | Cc1ccc(NS(=O)(=O)c2cc3n(c2)CCCNC3=O)cc1C |
| 620 | COCc1nncn1C1CN(C(=O)Cc2cc(OC)cc(OC)c2)C1 |
| 799 | Cc1cc2c(N3CCCC(C(=O)N4CCN(c5ccc(Cl)cc5)CC4)C3)nccc2s1 (stereo not drawn) |
| 701 | COc1ccc(NC(=O)C2CCCN(c3nnc4ccc(Cl)cn34)C2)c(OC)c1 (stereo not drawn) |
| 841 | CC(C)CCNC(=O)C1CCCN(S(=O)(=O)c2ccc3nc(-c4ccccc4)[nH]c3c2)C1 (stereo not drawn) |
| 826 | CC(=O)c1c(C)n(CC(=O)NCc2cc3c(cc2C)OCCCO3)c2ccccc12 |
| 568 | O=C(NCCc1c[nH]c2ccccc12)C1CCCN(c2ccc(-n3ccnc3)nn2)C1 (stereo not drawn) |
| 903 | Cc1ccc(N2C(=O)CN(S(C)(=O)=O)CC2(C)C(=O)NCc2ccc(Cl)cc2)c(C)c1 (stereo not drawn) |
| 1020 | Cc1ccccc1CN1C(=O)CN(S(=O)(=O)c2ccccc2)CC1(C)C(=O)NC1CCCCC1 (stereo not drawn) |
| 942 | Cc1ccc(C)c(N2CCN(c3ccnc(SCC(=O)Nc4c(C)cccc4Cl)n3)CC2)c1 |
| 904 | COc1ccc(CN2CC3(CCN(S(=O)(=O)c4ccc(F)cc4)CC3)C2=O)cc1 |
| 583 | Cc1ccc(CNC(=O)C2CCCN(c3cc(=O)n(C)c(=O)n3C)C2)o1 (stereo not drawn) |
| 1110 | Cc1ccc(NC(=O)Cn2cc3c(n2)CCC(C)C3)c(Cl)c1 (stereo not drawn) |
| 677 | Cc1ccc(S(=O)(=O)c2cnc(N3CCN(c4ccccn4)CC3)nc2N)cc1C |
| 757 | CCc1ccccc1NC(=O)C1CCN(S(=O)(=O)c2ccc3c(c2)CCCC(=O)N3)CC1 |
| 1250 | Cc1ccc(-c2nnc(-c3ccc(Cl)c(S(=O)(=O)N4CCCCC4)c3)o2)cc1 |
| 996 | Cc1ccccc1Oc1nccn2c(=O)n(CC(=O)Nc3ccc(Cl)c(Cl)c3)nc12 |
| 705 | Cc1cc(C)n2nc(SCC(=O)N(C)c3ccccc3)nc2n1 |
| 1340 | COc1ccc(Cn2nc3ccc(S(=O)(=O)N4CCC(C)CC4)cn3c2=O)cc1F |
| 1160 | COc1ccccc1N1CCN(S(=O)(=O)c2cc(-c3csc(C)n3)ccc2C)CC1 |
| 759 | CCCNC(=O)C1CCCN(c2nc3ncn(CC(=O)Nc4cc(C)cc(C)c4)c(=O)c3s2)C1 (stereo not drawn) |
| 607 | Cc1nnc([C@@H]2CC(F)(F)CN2C(=O)c2ccc3ncccc3c2)o1 |
| 617 | Cc1cc(C)c(S(=O)(=O)N2CCCC2c2nncn2Cc2ccncc2)c(C)c1 (stereo not drawn) |
| 1050 | Cc1ccc(NC(=O)C2CCN(S(=O)(=O)c3ccc4c(c3)sc(=O)n4C(C)C)CC2)cc1F |
| 688 | Cn1nc(-c2nnc(-c3ccccc3)o2)c2c1CCN(S(=O)(=O)c1ccc3c(c1)CCC3)C2 |
| 934 | Cc1cc(NC(=O)Cn2c(C)cc(-c3nnc(C4CCC4)o3)c2C)ccc1F |
| 624 | Cc1ccc(-c2noc(Cn3ccnc3)n2)cc1 |
| 659 | O=C(Nc1cccc(-c2nnc3n2CCCC3)c1)c1ccsc1 |
| 628 | COc1ccc(CCN2CCC(CNS(=O)(=O)c3ccc4c(c3)CCCC(=O)N4)CC2)cc1 |

Further lines, the molecule ahead of its results:

| Structure (SMILES) | RP-LC retention time [s] |
| --- | --- |
| O=C(NCc1ccccc1F)c1ccc(CN2CCN(Cc3ccccc3)C(=O)C2=O)cc1 | 770 |
| CC(C)NC(=O)c1ccc(OCC2CCN(C(=O)Cc3ccc(Cl)cc3)CC2)cc1 | 927 |
| O=C(NCc1[nH]nc2ccccc12)C1CC(=O)N(c2cccc(Cl)c2)C1 (stereo not drawn) | 743 |
| COc1cc(OC)cc(-c2nnc(Cc3nc(-c4cccc(Cl)c4)no3)o2)c1 | 1130 |
| COc1ccc(NC(=O)C2CCCN(c3nnc4ccccn34)C2)cc1 (stereo not drawn) | 637 |
| O=S(=O)(Nc1ccc(Cl)cc1)c1c[nH]c2ncccc12 | 750 |
| O=C(NCCc1ccccn1)C1CN(C(=O)c2cccs2)CC12CCCCC2 (stereo not drawn) | 602 |
| O=C(COc1ccccc1-c1nnc(-c2ccccc2)o1)N1CCN(C(=O)c2ccco2)CC1 | 760 |
| Cc1ccc2c(c1)C(=O)NC1(CCN(C(=O)NC3CCCCC3)CC1)N2C | 763 |
| CC(C)NC(=O)c1nc2ccccc2n(C)c1=O | 659 |
| CC(C)CCNS(=O)(=O)c1ccccc1-c1nc(-c2ccccc2)no1 | 1240 |
| CCOC(=O)c1cc(S(=O)(=O)N2CCCC2C(=O)N2CCCCC2)cn1C (stereo not drawn) | 767 |
| CCOC(=O)c1noc2ncnc(NCc3ccc(C)cc3)c12 | 936 |
| CC(C)(C)c1ccc(NC(=O)NCCN2CCN(S(C)(=O)=O)CC2)cc1 | 606 |
| CCOc1ccc(NC(=O)N2CCc3cn(CC)c4cccc(c34)C2)cc1 | 952 |
| Cn1ncc(NC(=O)c2ccccc2F)c(N2CCOCC2)c1=O | 777 |
| COc1cc(C(=O)N(Cc2ccc(N(C)C)cc2)CC2CCCO2)cc(OC)c1OC (stereo not drawn) | 659 |
| CCCc1noc(-c2ccnc(-n3ncc(C(=O)N4CCSCC4)c3C)c2)n1 | 974 |
| O=C(Nc1ncnc2c1CCC2)c1ccc(S(=O)(=O)N2CCc3ccccc3C2)cc1 | 783 |
| O=S(=O)(NCc1ccccc1Cl)c1ccc2c(c1)-c1oncc1CO2 | 907 |

| Structure (SMILES) | RP-LC retention time [s] |
| --- | --- |
| COc1ccc(OCc2nc(-c3ccc4nnn(C)c4c3)no2)cc1 | 916 |
| Cc1cc(N2CCCC2)n2nc(CN3CCCCC3C)nc2n1 (stereo not drawn) | 566 |
| Cc1nn(-c2ccc(SCC(=O)NC(C)C)nn2)c(C)c1C | 776 |
| CCn1cnc2ccc(-c3noc(COc4ccccc4)n3)cc21 | 742 |
| CCCNC(=O)c1cn2ccnc(-c3ccc(C)cc3)c2n1 | 878 |
| c1ccc(-c2noc(-c3ccccc3OC3CCNC3)n2)cc1 (stereo not drawn) | 684 |
| CCOc1ccc(NC(=O)N2CCN(c3cc(C)nc(N4CCCC4)n3)CC2)cc1 | 681 |
| COc1ccc(NC(=O)Cn2nc(N3CCOCC3)c3ccccc3c2=O)cc1 | 730 |
| COc1ccc(-c2nnc(-c3cccnc3NCCC3=CCCCC3)o2)cc1 | 1330 |
| COc1cc(OC)c(NC(=O)N(C)CCc2noc(COc3ccccc3)n2)cc1Cl | 957 |
| CCCCN1CCN(C(=O)c2cn(-c3cc(N4CCSCC4)ncn3)cn2)CC1 | 639 |
| COC(=O)COc1cc(-c2cccc(Cl)c2)nc2ccc(NC(=O)C3CC3)cc12 | 823 |
| O=C(CN1CC=C(c2cnn(-c3ccccc3)c2)CC1)Nc1ccccc1Cl | 690 |
| Cc1ccc(CN2C[C@@H](CO)[C@H](c3ccccn3)C2)nc1 | 559 |
| Cn1cc(CC(=O)NCc2nc(-c3ccccc3)no2)c2ccccc21 | 837 |
| COc1ccc(C[C@@H]2NC[C@@H](O)[C@@H]2OC(C)=O)cc1 | 600 |
| Cc1[nH]c(C(=O)N2CCCC(C(=O)NCc3ccccc3F)C2)c(C)c1C(=O)OC(C)C (stereo not drawn) | 860 |
| COCCCNC(=O)C1CCCN(c2ncc(-c3ccc(F)cc3)cn2)C1 (stereo not drawn) | 824 |
| Cc1nc(-c2cc(S(=O)(=O)NCc3ccc(OC(C)C)cc3)c(C)s2)sc1C | 1150 |
| COc1ccc(-c2ncn3c2C(=O)N(CC(=O)O)CC3)cc1 | 567 |

| Structure (SMILES) | RP-LC retention time [s] |
| --- | --- |
| Cc1cccc(NC(=O)Nc2c(-c3cccc(C)c3)nc3ccccn23)c1 | 716 |
| COCC(=O)N1CCN(C2CCN(CCC(C)C)C2=O)CC1 (stereo not drawn) | 535 |
| CC(C)NC(=O)N1C[C@@H]2CCCN3CCC[C@@H]([C@H]23)[C@H]1CCCC(=O)NCC1CC1 | 578 |
| CCn1c(=O)c2c(cc(C)n2C)n(CC(=O)Nc2c(C)cccc2C)c1=O | 756 |
| CCc1cc(C(=O)N2CCN(CC(C)C)CC2)nc2cc(-c3ccco3)nn12 | 734 |
| COc1ccc(Cc2nc(-c3ccc4oc(C)nc4c3)no2)cc1OC | 892 |
| Cc1noc(C)c1CCNC(=O)C(C)n1c2ccccc2c2cnn(C)c(=O)c21 (stereo not drawn) | 741 |
| Cc1sc(NC(=O)Cc2csc(-c3ccccc3)n2)nc1-c1ccccc1 | 1160 |
| COc1ccccc1N1CCN(c2cc(SCC(=O)NC3CCCCC3)ncn2)CC1 | 875 |
| O=C(c1ccc(-c2noc(C3CCC3)n2)cc1)N1CCCC1 | 879 |
| Cc1noc(COC2CCN(C(=O)Cc3c[nH]c4ccccc34)CC2)n1 | 724 |
| CC(C)c1noc(-c2ccnc(-n3cnc(C(=O)NCc4ccco4)c3)c2)n1 | 809 |
| COc1cccc(OC)c1OCC(O)CN1CCN(c2ccc(F)cc2)CC1 (stereo not drawn) | 690 |
| CCCCN(CCNc1ncnc2onc(-c3ccccc3OC)c12)Cc1ccco1 | 726 |
| COC(=O)c1ccccc1NC(=O)C1CCCN(c2ncnc3onc(-c4ccc(F)cc4)c23)C1 (stereo not drawn) | 1130 |
| NC(=O)c1cnc(-c2ccc(Cl)cc2)n(CC(=O)N2CCCc3ccccc32)c1=O | 986 |
| CCCCOC(=O)C1=C(C)NC(=O)NC1c1ccc(OCCC)c(OC)c1 (stereo not drawn) | 884 |
| COc1ccc(-n2cc(-c3nc(-c4ccccn4)no3)c3ccccc3c2=O)cc1OC | 821 |
